pIC50: −log10 of the molar value.
System: KRAS patient-derived spheroids with HUVEC/MSC, viability
Assay: Anticancer human tumor 941728-121-R-J1-PDC patient-derived lung adenocarcinoma cell line growth inhibition [KRAS2]
Details: for pIC50: curve of first compound; for viability, T/C: stronger effect = lower value
How it was run: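 Combination screen of spheroid viability in tumor-cell co-cultures with endothelial (HUVEC) and mesenchymal stem cell stroma. Each agent was tested in half-log dilutions, topping at clinical Cmax or at 10 microM without a known Cmax.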

[1] = second compound 0.1 µM, first compound 0.0316 µM
[2] = second compound 0.1 µM, first compound 0.1 µM
[3] = second compound 0.1 µM, first compound 0.316 µM
[4] = second compound 0.1 µM, first compound 1 µM
[5] = second compound 0.1 µM, first compound 3.16 µM
[6] = second compound 0.1 µM, first compound 10 µM
[7] = second compound 0.316 µM, first compound 0.0316 µM
[8] = second compound 0.316 µM, first compound 0.1 µM
[9] = second compound 0.316 µM, first compound 0.316 µM
[10] = second compound 0.316 µM, first compound 1 µM
[11] = second compound 0.316 µM, first compound 3.16 µM
[12] = second compound 0.316 µM, first compound 10 µM
[13] = second compound 1 µM, first compound 0.0316 µM
[14] = second compound 1 µM, first compound 0.1 µM
[15] = second compound 1 µM, first compound 0.316 µM
[16] = second compound 1 µM, first compound 1 µM
[17] = second compound 1 µM, first compound 3.16 µM
[18] = second compound 1 µM, first compound 10 µM
[19] = second compound 3.16 µM, first compound 0.0316 µM
[20] = second compound 3.16 µM, first compound 0.1 µM
[21] = second compound 3.16 µM, first compound 0.316 µM
[22] = second compound 3.16 µM, first compound 1 µM
[23] = second compound 3.16 µM, first compound 3.16 µM
[24] = second compound 3.16 µM, first compound 10 µM
[25] = second compound 10 µM, first compound 0.0316 µM
[26] = second compound 10 µM, first compound 0.1 µM
[27] = second compound 10 µM, first compound 0.316 µM
[28] = second compound 10 µM, first compound 1 µM
[29] = second compound 10 µM, first compound 3.16 µM
[30] = second compound 10 µM, first compound 10 µM
[31] = second compound 0.1 µM, first compound 0.000316 µM
[32] = second compound 0.1 µM, first compound 0.001 µM
[33] = second compound 0.1 µM, first compound 0.00316 µM
[34] = second compound 0.1 µM, first compound 0.01 µM
[35] = second compound 0.316 µM, first compound 0.000316 µM
[36] = second compound 0.316 µM, first compound 0.001 µM
[37] = second compound 0.316 µM, first compound 0.00316 µM
[38] = second compound 0.316 µM, first compound 0.01 µM
[39] = second compound 1 µM, first compound 0.000316 µM
[40] = second compound 1 µM, first compound 0.001 µM
[41] = second compound 1 µM, first compound 0.00316 µM
[42] = second compound 1 µM, first compound 0.01 µM
[43] = second compound 3.16 µM, first compound 0.000316 µM
[44] = second compound 3.16 µM, first compound 0.001 µM
[45] = second compound 3.16 µM, first compound 0.00316 µM
[46] = second compound 3.16 µM, first compound 0.01 µM
[47] = second compound 10 µM, first compound 0.000316 µM
[48] = second compound 10 µM, first compound 0.001 µM
[49] = second compound 10 µM, first compound 0.00316 µM
[50] = second compound 10 µM, first compound 0.01 µM
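Also: spheroids exposed to agents for seven days before readout.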

CC(C)NCC(C(=O)N1CCN(c2ncnc3c2C(C)CC3O)CC1)c1ccc(Cl)cc1 (stereo not given) + CNCc1ccccc1-c1csc(C(C)Nc2nc(C)nc3cc(OC)c(OC)cc23)c1
pIC50 (second compound 0.1 µM): 6.66
pIC50 (second compound 0.316 µM): > 7.50
pIC50 (second compound 1 µM): > 7.50
pIC50 (second compound 3.16 µM): > 7.50
pIC50 (second compound 10 µM): > 7.50
viability, T/C [1]: 68.6%
viability, T/C [2]: 57%
viability, T/C [3]: 47.9%
viability, T/C [4]: 33.3%
viability, T/C [5]: 28.1%
viability, T/C [6]: 16.6%
viability, T/C [7]: 42.3%
viability, T/C [8]: 42.9%
viability, T/C [9]: 29.1%
viability, T/C [10]: 24.7%
viability, T/C [11]: 22.4%
viability, T/C [12]: 12.4%
viability, T/C [13]: 23.9%
viability, T/C [14]: 33.2%
viability, T/C [15]: 21.2%
viability, T/C [16]: 16.1%
viability, T/C [17]: 6.11%
viability, T/C [18]: 4.4%
viability, T/C [19]: 0.08%
viability, T/C [20]: 0.12%
viability, T/C [21]: 0.11%
viability, T/C [22]: 0.08%
viability, T/C [23]: 0.04%
viability, T/C [24]: 0.16%
viability, T/C [25]: 0.16%
viability, T/C [26]: 0.15%
viability, T/C [27]: 0.12%
viability, T/C [28]: 1.66%
viability, T/C [29]: 0.11%
viability, T/C [30]: 0.25%

CC(C)n1nc(-c2ccc3oc(N)nc3c2)c2c(N)ncnc21 + CNCc1ccccc1-c1csc(C(C)Nc2nc(C)nc3cc(OC)c(OC)cc23)c1
pIC50 (second compound 0.1 µM): 9.18
pIC50 (second compound 0.316 µM): > 9.50
pIC50 (second compound 1 µM): > 9.50
pIC50 (second compound 3.16 µM): > 9.50
pIC50 (second compound 10 µM): > 9.50
viability, T/C [31]: 49%
viability, T/C [32]: 59.2%
viability, T/C [33]: 37.3%
viability, T/C [34]: 34.3%
viability, T/C [1]: 34.5%
viability, T/C [2]: 31.4%
viability, T/C [35]: 44.7%
viability, T/C [36]: 45.2%
viability, T/C [37]: 35.9%
viability, T/C [38]: 23.1%
viability, T/C [7]: 24.1%
viability, T/C [8]: 16.6%
viability, T/C [39]: 34.8%
viability, T/C [40]: 29.3%
viability, T/C [41]: 15.9%
viability, T/C [42]: 13.6%
viability, T/C [13]: 11%
viability, T/C [14]: 7.65%
viability, T/C [43]: 0.15%
viability, T/C [44]: 0.16%
viability, T/C [45]: 0.1%
viability, T/C [46]: 0.11%
viability, T/C [19]: 0.08%
viability, T/C [20]: 0.13%
viability, T/C [47]: 0.58%
viability, T/C [48]: 0.43%
viability, T/C [49]: 2.78%
viability, T/C [50]: 0.67%
viability, T/C [25]: 0.67%
viability, T/C [26]: 0.72%

CC1(C)CCC(CN2CCN(c3ccc(C(=O)NS(=O)(=O)c4ccc(NCC5CCOCC5)c([N+](=O)[O-])c4)c(Oc4cnc5[nH]ccc5c4)c3)CC2)=C(c2ccc(Cl)cc2)C1 + CNCc1ccccc1-c1csc(C(C)Nc2nc(C)nc3cc(OC)c(OC)cc23)c1
pIC50 (second compound 0.1 µM): > 7.50
pIC50 (second compound 0.316 µM): > 7.50
pIC50 (second compound 1 µM): > 7.50
pIC50 (second compound 3.16 µM): > 7.50
pIC50 (second compound 10 µM): > 7.50
viability, T/C [1]: 41.7%
viability, T/C [2]: 41.8%
viability, T/C [3]: 41.4%
viability, T/C [4]: 39.2%
viability, T/C [5]: 6.99%
viability, T/C [6]: 4.92%
viability, T/C [7]: 39.8%
viability, T/C [8]: 36%
viability, T/C [9]: 33.4%
viability, T/C [10]: 35.1%
viability, T/C [11]: 7.18%
viability, T/C [12]: 2.59%
viability, T/C [13]: 27%
viability, T/C [14]: 31.7%
viability, T/C [15]: 23.2%
viability, T/C [16]: 22.6%
viability, T/C [17]: 4.9%
viability, T/C [18]: 1.48%
viability, T/C [19]: 0.19%
viability, T/C [20]: 0.17%
viability, T/C [21]: 0.27%
viability, T/C [22]: 0.69%
viability, T/C [23]: 0.04%
viability, T/C [24]: 0.12%
viability, T/C [25]: 0.11%
viability, T/C [26]: 0.11%
viability, T/C [27]: 0.09%
viability, T/C [28]: 0.33%
viability, T/C [29]: 0.1%
viability, T/C [30]: 0.12%

CCN1CCN(Cc2ccc(Nc3ncc(F)c(-c4cc(F)c5nc(C)n(C(C)C)c5c4)n3)nc2)CC1 + CNCc1ccccc1-c1csc(C(C)Nc2nc(C)nc3cc(OC)c(OC)cc23)c1
pIC50 (second compound 0.1 µM): 8.21
pIC50 (second compound 0.316 µM): > 8.50
pIC50 (second compound 1 µM): > 8.50
pIC50 (second compound 3.16 µM): > 8.50
pIC50 (second compound 10 µM): > 8.50
viability, T/C [33]: 58.2%
viability, T/C [34]: 43.9%
viability, T/C [1]: 40%
viability, T/C [2]: 43.7%
viability, T/C [3]: 38.4%
viability, T/C [4]: 53%
viability, T/C [37]: 44%
viability, T/C [38]: 38.5%
viability, T/C [7]: 31%
viability, T/C [8]: 28.9%
viability, T/C [9]: 30.6%
viability, T/C [10]: 46.8%
viability, T/C [41]: 22.1%
viability, T/C [42]: 25.4%
viability, T/C [13]: 18.7%
viability, T/C [14]: 17.1%
viability, T/C [15]: 16.9%
viability, T/C [16]: 5.4%
viability, T/C [45]: 1.35%
viability, T/C [46]: 1.57%
viability, T/C [19]: 1.42%
viability, T/C [20]: 2.24%
viability, T/C [21]: 0.67%
viability, T/C [22]: 2.46%
viability, T/C [49]: 0.72%
viability, T/C [50]: 0.55%
viability, T/C [25]: 0.84%
viability, T/C [26]: 0.24%
viability, T/C [27]: 0.74%
viability, T/C [28]: 0.15%

COc1cc2nccc(Oc3ccc(NC(=O)C4(C(=O)Nc5ccc(F)cc5)CC4)cc3)c2cc1OC + CNCc1ccccc1-c1csc(C(C)Nc2nc(C)nc3cc(OC)c(OC)cc23)c1
pIC50 (second compound 0.1 µM): 7.07
pIC50 (second compound 0.316 µM): > 7.50
pIC50 (second compound 1 µM): > 7.50
pIC50 (second compound 3.16 µM): > 7.50
pIC50 (second compound 10 µM): > 7.50
viability, T/C [1]: 59.8%
viability, T/C [2]: 46.5%
viability, T/C [3]: 42.2%
viability, T/C [4]: 39.7%
viability, T/C [5]: 19.2%
viability, T/C [6]: 39.2%
viability, T/C [7]: 39%
viability, T/C [8]: 34.5%
viability, T/C [9]: 28.8%
viability, T/C [10]: 21.3%
viability, T/C [11]: 12.4%
viability, T/C [12]: 25.4%
viability, T/C [13]: 16.1%
viability, T/C [14]: 21%
viability, T/C [15]: 10.2%
viability, T/C [16]: 5.77%
viability, T/C [17]: 2.51%
viability, T/C [18]: 8.64%
viability, T/C [19]: 0.1%
viability, T/C [20]: 0.43%
viability, T/C [21]: 0.05%
viability, T/C [22]: 0.1%
viability, T/C [23]: 0.03%
viability, T/C [24]: 0.12%
viability, T/C [25]: 0.36%
viability, T/C [26]: 0.07%
viability, T/C [27]: 0.08%
viability, T/C [28]: 0.08%
viability, T/C [29]: 0.31%
viability, T/C [30]: 0.21%

Cn1ncnc1[C@H]1c2n[nH]c(=O)c3cc(F)cc(c23)N[C@@H]1c1ccc(F)cc1 + CNCc1ccccc1-c1csc(C(C)Nc2nc(C)nc3cc(OC)c(OC)cc23)c1
pIC50 (second compound 0.1 µM): 8.19
pIC50 (second compound 0.316 µM): > 9.50
pIC50 (second compound 1 µM): > 9.50
pIC50 (second compound 3.16 µM): > 9.50
pIC50 (second compound 10 µM): > 9.50
viability, T/C [31]: 52.8%
viability, T/C [32]: 70.3%
viability, T/C [33]: 47.4%
viability, T/C [34]: 44.4%
viability, T/C [1]: 44.3%
viability, T/C [2]: 37.2%
viability, T/C [35]: 35.8%
viability, T/C [36]: 30.6%
viability, T/C [37]: 27.9%
viability, T/C [38]: 29.3%
viability, T/C [7]: 26.3%
viability, T/C [8]: 27.4%
viability, T/C [39]: 14.4%
viability, T/C [40]: 15.7%
viability, T/C [41]: 15.4%
viability, T/C [42]: 14.4%
viability, T/C [13]: 10.9%
viability, T/C [14]: 15.1%
viability, T/C [43]: 0.11%
viability, T/C [44]: 0.05%
viability, T/C [45]: 0.16%
viability, T/C [46]: 0.06%
viability, T/C [19]: 0.09%
viability, T/C [20]: 0.18%
viability, T/C [47]: 0.08%
viability, T/C [48]: 0.09%
viability, T/C [49]: 0.08%
viability, T/C [50]: 0.09%
viability, T/C [25]: 0.12%
viability, T/C [26]: 0.16%

— PubChem BioAssay AID1963862 (Molecular Pharmacology Branch, DTP, NCI, 2024)
